# Test results reported in publication PMC8351946, “Mle046 Is a Marine Mesophilic MHETase-Like Enzyme” (Frontiers in Microbiology, 2021).
# System: T1, Mle046
# T1 construct: signal peptide (first 27 residues) removed; His-tagged (pColdII), tag kept; codon-optimised gene, E. coli Shuffle T7; theoretical 62 kD
# Assay: HPLC ([…] nm), MHET degradation rate, non-linear Michaelis-Menten fit
# Assay type: biochemical, metagenome: marine microbial consortium
# Settings: 40 mM sodium phosphate pH 7.5, 30°C; rate declines at 2,700 μM MHET (fit up to 2,230 μM)
smiles,measurement,value
O=C(O)c1ccc(C(=O)OCCO)cc1 [MHET],Km,2640 µM
